In one series the test system is B16 melanoma. As to the kind of experiment: B16 melanoma growth in C57B mice. Format: in vivo, mouse. Here is the method: The growth of B16 melanoma in C57B mice is dependent upon neovascularization.
Using the growth of B16 melanoma cells in C57B mice, a recognized model for the evaluation of inhibitors of angiogenesis on the growth of cancers, the effects of subcutaneous, intraperitoneal and oral administration of squalamine were evaluated.
Based on the idea that tumor growth involves both the clonal expansion of a malignant cell along with the development of a supporting vascular supply, a combination of compound 1436 with squalamine was tested to determine whether it would achieve a synergistic effect on solid tumor growth. This concept was evaluated in the B16 melanoma model.
Animals were implanted with B16 melanoma followed by treatment with compound 1436 or 1256 administered in a combined schedule or separately. […] Thus, a combination of these two compounds achieves a therapeutic benefit in tumors dependent on neovascularization that may prevent metastatic spread.

Series [1] concerns chick chorioallantoic membrane. As to the kind of experiment: chorioallantoic membrane (CAM) model, capillary growth. Format: in vivo. The text has this: The growing capillaries within the chorioallantoic membrane model (CAM model) have been used as a system in which to evaluate the effect of agents on their potential to inhibit new vessel growth. Neovascularization occurs most aggressively over the first week of embryonic development. Thereafter capillary growth is characterized by principally "elongation" rather than "de novo" formation.
In the standard assay, agents are applied locally to a region of the embryo over which neovascularization will occur. Agents are assessed by their ability to inhibit this process, as evaluated by visual examination about 7 days after application. […] The assay utilized is described in detail in Auerbach et al., Pharm. Ther. 51, 1991, 1-11.

The structures appear in SMILES notation.

On to `CC(C)[C@@H](CC[C@@H](C)[C@H]1CC[C@H]2[C@@H]3[C@H](O)C[C@H]4C[C@@H](NCCCNCCCCN)CC[C@]4(C)[C@H]3CC[C@]12C)OS(=O)(=O)O` [Squalamine, squalamine], for which the “suppression of tumor volume” value with B16 melanoma (intraperitoneal), in the series on B16 melanoma (oral) and in the series on B16 melanoma (subcutaneous) was “a dose-dependent suppression of tumor volume was observed” throughout. Besides, the “body weight and hematologic parameters” value in the series on B16 melanoma (s.c., i.p. or oral treatment) is “no significant depression”. The “tumor growth, single agent” value in the series on B16 melanoma (squalamine 15 mg/kg/day, compound 1436 alone in a tolerable schedule) is recorded as “Neither administration of squalamine at 15 mg/kg/day nor compound 1436 alone in a tolerable schedule could achieve this effect”. In the series on B16 melanoma (squalamine alone 5 mg/kg/day), the “impact on tumor volume” value is given as “no significant impact on tumor volume”. Further, the “amount resulting in inhibition of CAM vessel neovascularization” value in series [1] (3-day CAM) was at most 0.65 µg. Moreover, the “inhibitory effect on 13-day old chick” value in series [1] (ten times 0.65 μg) is given as “no inhibitory effect”.

The record behind these values is US5795885A, “Method of inhibiting profileration of cells by administering an aminosterol compound” (priority 1995, dated 1998).
